The values below come from patent US3984395A, “Method of isolating gentamicin C2a” (Schering Corporation, priority 1974, dated 1976).

One series concerns Bacillus subtilis 663. Nature of the series: in vitro MIC, standard tube dilution method. The note with it: Mueller-Hinton broth, read-out: minimal inhibitory concentration (MIC). Format: cell-based. From the text: (§1) In Table 1, set forth below is shown the in vitro minimal inhibitory concentration (MIC) of gentamicin C2a against representative gram-positive and gram-negative bacteria. The results are derived using the standard tube dilution method in Mueller-Hinton broth.

In series [1] the test system is Escherichia coli ATCC 10536. In words: in vitro MIC, standard tube dilution method. As to conditions: ATCC10536, Mueller-Hinton broth, read-out: minimal inhibitory concentration (MIC). Type of series: cell-based.
From the text: as §1

The next series concerns Escherichia coli JR66. In words: in vitro MIC, standard tube dilution method. Format: cell-based. The note with it: Mueller-Hinton broth, read-out: minimal inhibitory concentration (MIC).
From the text: as §1

Series [2] has as its system Escherichia coli La290R55. Nature of the series: in vitro MIC, standard tube dilution method. Format: cell-based. As to conditions: LA290R55, read-out: minimal inhibitory concentration (MIC).
From the text: as §1

Another series has as its system Klebsiella pneumoniae 17. In words: in vitro MIC, standard tube dilution method. Format: cell-based. The note with it: Mueller-Hinton broth, read-out: minimal inhibitory concentration (MIC).
From the text: as §1

The test system of series [3] is Klebsiella pneumoniae 3694. In words: in vitro MIC, standard tube dilution method. Format: cell-based. As to conditions: Mueller-Hinton broth, read-out: minimal inhibitory concentration (MIC).
From the text: as §1

Series [4] concerns Pseudomonas aeruginosa 20. Nature of the series: in vitro MIC, standard tube dilution method. As to conditions: Mueller-Hinton broth, read-out: minimal inhibitory concentration (MIC). Type of series: cell-based.
From the text: as §1

The subject of series [5] is Pseudomonas aeruginosa 3223. In words: in vitro MIC, standard tube dilution method. The note with it: Mueller-Hinton broth, read-out: minimal inhibitory concentration (MIC). Format: cell-based.
From the text: as §1

Series [6] relates to Pseudomonas aeruginosa 762. Nature of the series: in vitro MIC, standard tube dilution method. Format: cell-based. As to conditions: Mueller-Hinton broth, read-out: minimal inhibitory concentration (MIC).
From the text: as §1

The test system of series [7] is Pseudomonas aeruginosa St 138. Nature of the series: in vitro MIC, standard tube dilution method. Format: cell-based. As to conditions: ST138; Pseudomonas aeruginosa St 138 (Gentamicin resistant); Mueller-Hinton broth; read-out: minimal inhibitory concentration (MIC).
From the text: as §1

The subject of series [8] is Pseudomonas aeruginosa Travers. Nature of the series: in vitro MIC, standard tube dilution method. Format: cell-based. As to conditions: Pseudomonas aeruginosa Travers (Gentamicin resistant); Mueller-Hinton broth; read-out: minimal inhibitory concentration (MIC).
From the text: as §1

Another series deals with Salmonella typhi. B. Nature of the series: in vitro MIC, standard tube dilution method. Format: cell-based. The note with it: Salmonella enterica, read-out: minimal inhibitory concentration (MIC).
From the text: as §1

In series [9] the test system is Staphylococcus aureus 59N. Nature of the series: in vitro MIC, standard tube dilution method. Type of series: cell-based. As to conditions: Mueller-Hinton broth, read-out: minimal inhibitory concentration (MIC).
From the text: as §1

In series [10] the test system is Staphylococcus aureus 6538P. Nature of the series: in vitro MIC, standard tube dilution method. The note with it: Mueller-Hinton broth, read-out: minimal inhibitory concentration (MIC). Type of series: cell-based.
From the text: as §1

The subject of series [11] is Staphylococcus aureus Ziegler. In words: in vitro MIC, standard tube dilution method. Format: cell-based. The note with it: Mueller-Hinton broth, read-out: minimal inhibitory concentration (MIC).
From the text: as §1

In another series the test system is Streptococcus pyogenes C. In words: in vitro MIC, standard tube dilution method. Type of series: cell-based. As to conditions: Mueller-Hinton broth, read-out: minimal inhibitory concentration (MIC).
From the text: as §1

The nature of series [12]: acute intravenous LD50 in mice. As to conditions: mouse, in vivo, male CF-1 mice, 20 grams each.
Series [13] relates to gram-positive and gram-negative bacteria. In words: antibacterial spectrum in vitro. Type of series: cell-based. The note with it: compared with gentamicin C1, C1a, and C2.
From the text: Thus, the antiobiotic may be used for substantially the same anti-bacterial indications and in the same manner as disclosed in U.S. Pat. No. 3,091,572. For example, it is useful in wash solutions, for sanitary purposes, as in the washing of hands and the cleaning of equipment in contaminated rooms.
as §1

Each structure is given as a SMILES string. In brackets after ≈: the same amount, converted by molar mass.

What is called LD50 is the dose expected to kill half of the subjects tested. A lower LD50 goes with a more toxic substance.

As for `CN[C@@H]1[C@@H](O)[C@@H](O[C@@H]2[C@@H](O)[C@H](O[C@H]3O[C@H]([C@H](C)N)CC[C@H]3N)[C@@H](N)C[C@H]2N)OC[C@]1(C)O` [gentamicin C2a], the MIC in the series with Bacillus subtilis 663 is 0.1 µg/mL (≈ 0.216 µM); in series [1] it was 0.3 µg/mL (≈ 0.647 µM); in the series with Escherichia coli JR66, 7.5 µg/mL (≈ 16.2 µM); in series [2] it was 17.5 µg/mL (≈ 37.8 µM); in the series on Klebsiella pneumoniae 17, 0.8 µg/mL (≈ 1.73 µM); in series [3], 17.5 µg/mL (≈ 37.8 µM). The MIC is 3 µg/mL (≈ 6.47 µM) in series [4]; 0.3 µg/mL (≈ 0.647 µM) in series [5]; 0.8 µg/mL (≈ 1.73 µM) in series [6]; over 25 µg/mL in [7]; over 25 µg/mL in series [8]; 0.3 µg/mL (≈ 0.647 µM) in the series with Salmonella typhi. B.. For the same molecule, the MIC in series [9] is 0.3 µg/mL (≈ 0.647 µM); in series [10], 0.3 µg/mL (≈ 0.647 µM); in [11], 0.3 µg/mL (≈ 0.647 µM); in the series with Streptococcus pyogenes C it was 7.5 µg/mL (≈ 16.2 µM). Moreover, the LD50 in [12] worked out at 110 mg/kg. Besides, the “antibacterial spectrum in vitro” value in series [13] was “substantially the same antibacterial spectrum in vitro as do gentamicin C1, C1a, and C2”.

`CN[C@@H]1[C@@H](O)[C@@H](O[C@@H]2[C@@H](O)[C@H](O[C@H]3O[C@H]([C@@H](C)N)CC[C@H]3N)[C@@H](N)C[C@H]2N)OC[C@]1(C)O` [gentamicin C2] came in with an LD50 in [12] of 83 mg/kg.
